These results are taken from patent publication US20200377863A1, “MODEL SYSTEM OF LIVER FIBROSIS AND METHOD OF MAKING AND USING THE SAME” (Wake Forest University Health Sciences, priority 2017, published 2020).

Series [1] addresses T1, EZH2 (Homo sapiens, UniProt Q15910).
T1 construct: endogenous in cells; host or cells: myofibroblasts transitioned from mesenchymal stem cells (called tumor-associated fibroblasts, TAF)
Briefly: Western blot and densitometry of EZH2 activity marker H3K27me3 in fibroblasts treated with GSK-126. The format is cell-based. As for the experimental part:
(§1) FIG. 4A-FIG. 4F. Analysis of LX-2 cells. FIG. 4A: Western blot comparison of αSMA and PRC2 components/markers in Myofibroblasts and LX-2. FIG. 4B: Densitometry analysis of Myofibroblast vs. LX-2 western blot. FIG. 4C: Western blot analysis of αSMA and PRC2 components/markers in LX-2 cells treated with TGFβ for 24 or 48 hours. FIG. 4D: Densitometry analysis of TGFβ treated LX-2. FIG. 4E: Western blot analysis of EZH2 marker (H3K27me3) for EZH2 activity in myofibroblasts transitioned from Mesenchymal Stem Cells treated with GSK-126, a chemical inhibitor of EZH2. DMSO is a vehicle control.
On the technique in general: Immunoblotting shows a protein as a band on a membrane.

Series [2] deals with EZH2. The settings on record: lymphoma and non-small cell lung cancer cell lines in vitro; cited from earlier work.
Series [3] relates to cancer cell lines that have EZH2 activating mutations. The settings on record: cited from earlier work.
The subject of series [4] is cells that do not carry activating EZH2 mutations. The following applies: high doses; cited from earlier work.
Series [5] has as its system LX-2. Briefly: Western blot of EZH2 activity and PRC2 components in LX-2 cells incubated with TGFβ. The following applies: LX-2 cells treated with TGFβ for 24 or 48 hours; FIG. 4C, 4D. The class given is cell-based. The protocol: as §1
In the fibrotic liver tissue, about 90% of myofibroblasts are derived from HSC (Liedtke, C., et al., Experimental liver fibrosis research: update on animal models, legal issues and translational aspects. Fibrogenesis Tissue Repair, 2013. 6(1): p. 19), and EZH2 may be an epigenetic regulator of HSC activation and transition into myofibroblast. It was shown that, like myofibroblasts (MF-10), the HSC cell line (LX-2) expresses EZH2 and the PRC components in vitro (FIG. 4A, FIG. 4B).

The subject of series [6] is implanted liver organoids. The series is described as follows: Effect of CCl4 treatment on liver organoids implanted on mouse liver. The format is in vivo, nude mice. The settings on record: 4 μl/g CCl4 in olive oil (1:1), bi-weekly subcutaneous injections. As for the experimental part:
FIG. 3. The effect of CCl4 treatment on implanted liver organoids. Liver organoids were inserted on top of mouse livers via a small hole carved with a 8 mm biopsy punch and immobilized with fibrin glue. Some of the mice were treated with 4 μl/g CCl4, via bi-weekly subcutaneous injections. Liver organoids were harvested after 1 and 3 weeks and immune-stained for human hepatocytes (Hep-1) and proliferating cells (PCNA). Implant margins are drawn.
Yet, the in vitro culture conditions lack multiple factors present in vivo including components of the blood and immune cells, to mention a few. Accordingly, we implanted organoids on top the liver of nude mice by creating a small hole with a biopsy punch and immobilized them with fibrin glue. […] In parallel, we treated some on the implanted mice with […] of CCl4 in olive oil (1:1), via bi-weekly subcutaneous injections. […] Neovascularization was also observed within the organoids, probably due to CCl4-induced injury of the host liver.

T1 sequence (Q15910 whole entry, species assumed): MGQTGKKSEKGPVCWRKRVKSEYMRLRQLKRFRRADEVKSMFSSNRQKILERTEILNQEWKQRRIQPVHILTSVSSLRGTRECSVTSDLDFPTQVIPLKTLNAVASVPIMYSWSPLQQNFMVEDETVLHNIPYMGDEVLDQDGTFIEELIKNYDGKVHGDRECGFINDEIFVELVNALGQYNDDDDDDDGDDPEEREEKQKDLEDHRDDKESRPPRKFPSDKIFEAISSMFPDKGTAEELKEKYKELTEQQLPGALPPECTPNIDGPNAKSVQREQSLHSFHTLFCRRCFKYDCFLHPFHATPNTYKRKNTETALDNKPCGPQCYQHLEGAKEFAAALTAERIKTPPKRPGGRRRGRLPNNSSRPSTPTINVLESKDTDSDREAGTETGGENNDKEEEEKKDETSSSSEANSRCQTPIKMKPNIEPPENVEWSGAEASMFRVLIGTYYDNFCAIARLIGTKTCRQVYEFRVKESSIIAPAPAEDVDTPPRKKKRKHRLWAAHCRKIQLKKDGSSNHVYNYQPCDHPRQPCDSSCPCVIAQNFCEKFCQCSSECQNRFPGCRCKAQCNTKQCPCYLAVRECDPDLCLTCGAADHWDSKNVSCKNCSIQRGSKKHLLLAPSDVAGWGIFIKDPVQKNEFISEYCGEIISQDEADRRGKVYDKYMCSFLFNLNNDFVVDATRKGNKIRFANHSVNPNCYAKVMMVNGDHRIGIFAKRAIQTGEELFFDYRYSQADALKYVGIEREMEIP
T1 sequence (Q15022 whole entry partner, species assumed): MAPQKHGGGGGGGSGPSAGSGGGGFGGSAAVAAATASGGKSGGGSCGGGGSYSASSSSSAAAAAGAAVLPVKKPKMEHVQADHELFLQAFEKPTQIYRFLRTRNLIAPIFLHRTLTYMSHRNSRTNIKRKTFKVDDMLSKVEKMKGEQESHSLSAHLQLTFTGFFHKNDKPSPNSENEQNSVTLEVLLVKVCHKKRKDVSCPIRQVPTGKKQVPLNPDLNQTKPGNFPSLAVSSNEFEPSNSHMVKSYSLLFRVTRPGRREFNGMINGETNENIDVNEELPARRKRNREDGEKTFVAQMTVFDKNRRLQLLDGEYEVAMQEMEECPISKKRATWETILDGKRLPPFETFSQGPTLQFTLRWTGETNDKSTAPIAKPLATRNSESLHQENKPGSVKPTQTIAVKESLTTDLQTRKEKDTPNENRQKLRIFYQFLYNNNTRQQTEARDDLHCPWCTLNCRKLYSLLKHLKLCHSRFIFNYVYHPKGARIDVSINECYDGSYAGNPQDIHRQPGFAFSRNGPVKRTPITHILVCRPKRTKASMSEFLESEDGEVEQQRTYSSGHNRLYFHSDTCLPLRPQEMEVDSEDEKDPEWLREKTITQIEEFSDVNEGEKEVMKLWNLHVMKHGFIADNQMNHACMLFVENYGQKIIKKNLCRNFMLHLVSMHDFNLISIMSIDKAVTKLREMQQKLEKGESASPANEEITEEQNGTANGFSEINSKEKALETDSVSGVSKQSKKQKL
T1 sequence (O75530 whole entry partner, species assumed): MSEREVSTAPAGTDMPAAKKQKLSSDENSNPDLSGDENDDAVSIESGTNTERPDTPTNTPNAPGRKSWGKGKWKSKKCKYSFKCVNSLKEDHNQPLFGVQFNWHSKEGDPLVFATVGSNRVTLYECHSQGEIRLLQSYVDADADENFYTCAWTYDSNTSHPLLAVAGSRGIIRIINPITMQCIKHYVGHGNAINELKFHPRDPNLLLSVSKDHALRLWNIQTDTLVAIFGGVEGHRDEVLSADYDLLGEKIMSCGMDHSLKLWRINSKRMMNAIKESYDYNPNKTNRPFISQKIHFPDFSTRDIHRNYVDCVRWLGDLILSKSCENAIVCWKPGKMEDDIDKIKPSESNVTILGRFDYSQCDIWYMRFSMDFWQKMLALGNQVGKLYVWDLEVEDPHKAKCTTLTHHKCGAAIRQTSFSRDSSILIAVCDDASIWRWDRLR

Turning to `CC[C@H](C)n1cc(C)c2c(C(=O)NCc3c(C)cc(C)[nH]c3=O)cc(-c3ccc(N4CCNCC4)nc3)cc21` [GSK-126], the “Densitometry of EZH2 marker (H3K27me3): activity of EZH2” value in series [1] (myofibroblasts transitioned from Mesenchymal Stem Cells, treated with GSK-126, FIG. 4F) is given as “effective decrease in activity of EZH2”. For the same molecule, the “H2K27me3 after incubation with GSK-126” value in series [1] (tumor-associated fibroblasts (TAF), Western blot, FIG. 4E, 4F) is given as “complete loss of H2K27me3”. Further, the “Prevention of H3K27me3” value in series [2] is given as “effective at preventing H3K27me3”. In series [3], the Cell death result is recorded as “resulted in cell death”. Besides, in series [4], the Lethality result is “non-lethal, even at high doses”.

Take TGFβ: in series [5], the “EZH2 activity and PRC machinery (Suz12, H3K27me3)” value was “induced EZH2 activity and PRC machinery”.

Turning to `ClC(Cl)(Cl)Cl` [CCl4, carbon tetrachloride], in series [6] (harvested after 1 week), the “Organoid histology after 1 week of CCl4 treatment” value was “lack of nucleated human hepatocytes within the organoids and early signs of fibrosis”. Further, in series [6] (harvested after 3 weeks), the “Organoid histology after 3 weeks of CCl4 treatment” value is “higher number of proliferating stromal and endothelial cells”.
